# Laboratory results as given in US20090239828A1, “Adhesive preparation” (priority 2006, published 2009).
# Assays:
# [1] = Clinical test, once daily oral administration to patients with osteoporosis; settings: human, in vivo
# [2] = Oral administration in rat models of osteoporosis; settings: in vivo; from the minimum effective dose in oral administration in rat models; read-out: sum of the AUC value of minodronic acid per month that gives a suppressive effect on osteoporosis
# Protocol: The effective blood concentration of the bisphosphonic acid derivative for human can be extrapolated from results of various clinical tests, animal experiments, etc. For example, when minodronic acid hydrate was used, the sum of the AUC value of minodronic acid per month that gives a suppressive effect on osteoporosis was about 5 ng·hr/mL or more, from the minimum effective dose in oral administration in rat models of osteoporosis.
structure (smiles),measurement,setting,value
"O=P(O)(O)C(O)(Cc1cnc2ccccn12)P(=O)(O)O [minodronic acid hydrate, 1-hydroxy-2-(imidazo[1,2-a]pyridin-3-yl)ethylidenebisphosphonic acid]",AUC,[1],≥ 1 ng·h/mL
same,AUC,[2],≥ 5 ng·h/mL
